Data on one compound can be found in US20050182220A1, “Novel functional norbornenes as initiators for radical polymerization, their polymeric derivatives and a process for producing the same” (priority 2004, published 2005).

The nature of the data set: Solubility in organic solvents. The format is physicochemical.

For `CC(C)(Br)C(=O)NCC1CC2C=CC1C2` (stereo not drawn) [NBTMBr], for the setting “at 60° C.”, the “Solubility: completely soluble in (solvents)” value is on record as “completely in N,N-dimethylacetamide (DMAc)”; the “Solubility: partially soluble in (solvents)” value was “partially in toluene, benzene, hexane and N-methyl-2-pyrrolidinone (NMP)”. Moreover, the “Solubility: soluble in (solvents)” value (at room temperature) was “soluble in acetone, pyridine, ethanol, methanol, methylene chloride, tetrahydrofuran, N,N-dimethylformamide (DMF) and dimethylsulfoxide (DMSO)”.
